One block for each molecule: values may come before it. Ends that are not written are not given here. * marks the point of attachment. Octanoyl = CCCCCCCC(=O)*
Tests used:
[1] = target: T1, human LIAS (lipoyl synthase) (Homo sapiens, UniProt O43766); test: X-ray crystal structure, […] Å; format: binding; conditions: co-crystallised with 5'-dAH and OCT-8mer, anaerobic; bidentate to unique Fe of radical SAM [Fe4S4] cluster
T1 construct: residues 65-372, N-terminal His6-tag with 10-aa linker kept (pET-28a), E. coli BL21(DE3) with pDB1282; two [Fe4S4] clusters; monomeric in asymmetric unit of 8TRW
T1 sequence (O43766 65-372): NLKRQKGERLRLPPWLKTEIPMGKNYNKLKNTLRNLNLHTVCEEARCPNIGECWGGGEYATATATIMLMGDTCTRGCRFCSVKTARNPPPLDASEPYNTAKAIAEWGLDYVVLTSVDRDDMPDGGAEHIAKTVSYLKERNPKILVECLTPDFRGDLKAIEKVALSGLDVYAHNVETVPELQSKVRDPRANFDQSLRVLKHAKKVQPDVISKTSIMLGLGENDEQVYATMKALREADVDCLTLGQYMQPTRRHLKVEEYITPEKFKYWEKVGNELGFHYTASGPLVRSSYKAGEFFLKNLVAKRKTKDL

[2] = target: T2, truncated human lipoyl synthase (LIAS isoform 1, aa 65–372) (human); test: crystal structure; LIAS (8 mg/ml) co-crystallised with 2.5 mM L-Met, 1 mM 5’-dAH and a 1.3x molar ratio of OCT-8mer; anaerobic, hanging drop, 0.1 M HEPES pH 7.5, 0.2 M Na2SO4, 30% PEG 3350, 3% trehalose; conditions: both partners purified
T2 construct: lipoyl synthase (LIAS), human, isoform 1, residues 65-372; Holds two [Fe4S4] clusters (RS and auxiliary); in the complex with Hpro the auxiliary cluster is [Fe3S3:1 mercaptooctanoyllysyl]; also called human LIAS; trnLIAS; source: E. coli BL21 (DE3) co-transformed with pDB1282, purified anaerobically (Ni-NTA, size-exclusion S-200); not shown: His6 (separated from the protein by a ten aa linker), …
T2 chain: T1 sequence (O43766 65-372)

Molecule: CSCC[C@H](N)C(=O)O [Met, methionine]
X-ray crystal structure, 1.58 Å [1]: The oxygen and nitrogen atoms of Met are coordinated to the unique iron

binding result [2]: binds
B1: octanoyl-containing eight amino acid peptide substrate mimic, Glu-Ser-Val-(N6-octanoyl)Lys-Ala-Ala-Ser-Asp (peptide)
peptide: ESVK(Octanoyl)AASD
notes: printed in three-letter code; human Hpro 104-111 is ESVKAASE; also called OCT-8mer; OCT-8-mer; source: synthetic peptide, custom-synthesized by Proimmune (Oxford, UK)

Reference: article PMC12246082, “Structural basis for catalysis by human lipoyl synthase” (Nature Communications, 2025)
